Measured values reported in patent US20080119515A1, “Heterocyclic Kinase Inhibitors: Methods of Use and Synthesis” (priority 2003, published 2008).

Biological target: T1, ZAP-70 (Homo sapiens, UniProt P43403)
T1 sequence (P43403 1-619): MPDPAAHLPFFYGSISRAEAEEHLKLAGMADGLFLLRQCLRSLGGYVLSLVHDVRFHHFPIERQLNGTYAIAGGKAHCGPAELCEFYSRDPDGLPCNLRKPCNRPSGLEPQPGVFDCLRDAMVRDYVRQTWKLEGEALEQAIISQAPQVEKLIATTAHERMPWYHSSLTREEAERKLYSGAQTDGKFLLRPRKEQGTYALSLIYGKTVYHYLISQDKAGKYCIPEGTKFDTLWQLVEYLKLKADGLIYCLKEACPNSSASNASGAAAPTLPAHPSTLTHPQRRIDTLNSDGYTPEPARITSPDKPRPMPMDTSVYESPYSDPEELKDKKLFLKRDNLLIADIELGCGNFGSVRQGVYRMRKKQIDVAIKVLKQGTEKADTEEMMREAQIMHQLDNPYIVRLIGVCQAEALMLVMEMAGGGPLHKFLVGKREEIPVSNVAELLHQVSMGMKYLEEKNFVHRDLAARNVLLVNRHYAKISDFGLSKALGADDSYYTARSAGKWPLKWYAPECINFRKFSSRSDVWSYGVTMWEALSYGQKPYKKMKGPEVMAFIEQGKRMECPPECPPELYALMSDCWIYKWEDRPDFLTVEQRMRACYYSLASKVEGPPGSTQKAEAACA
Experiment: DELFIA assay (ZAP-70 kinase, phosphorylation of biotinylated poly(glu,tyr))
Assay type: biochemical
Settings: ZAP-70 DELFIA, class symbols; read-out: Activity (IC50 in vitro)
Procedure, shortened: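 3.1 nM ZAP-70 pre-incubated 10 min at room temperature with compound ([…]) and 62.5 nM biotinylated poly(glu,tyr) in 62.5 mM Mops pH 7.0, 12.5 mM MgCl2, 12.5% glycerol, 6.25% DMSO (pre-incubation concentrations); ATP added from 5 mM stock, 30 min reaction, EDTA stop. Phosphorylation read by DELFIA europium anti-phosphotyrosine fluorescence (340/615).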

Row | IC50 | SMILES
1 | < 1 µM | N#Cc1csc2ccc(-c3ccc4nc(NCc5ccc(C(F)(F)F)cc5)cc(C(=O)N5CCC[C@H]5CN5CCCC5)c4c3)cc12 [Compound 351]
2 | < 1 µM | O=C(c1cc(NCc2ccc(C(F)(F)F)cc2)nc2ccc(-c3ccc4ncsc4c3)cc12)N1CCC[C@H]1CN1CCCC1 [Compound 352]
3 | > 10 µM | Cc1c(-c2ccc3nc(NCc4ccc(C(F)(F)F)cc4)cc(C(=O)N4CCC[C@H]4CN4CCCC4)c3c2)sc2ccc(Cl)cc12 [Compound 353]
4 | > 10 µM | O=C(c1cc(NCc2ccc(C(F)(F)F)cc2)nc2ccc(-c3nc4ccccc4[nH]3)cc12)N1CCC[C@H]1CN1CCCC1 [Compound 354]
5 | > 10 µM | O=C(c1cc(NCc2ccc(C(F)(F)F)cc2)nc2ccc(-c3ccc(-c4cnco4)s3)cc12)N1CCC[C@H]1CN1CCCC1 [Compound 355]
6 | > 10 µM | O=C(c1cc(NCc2ccc(C(F)(F)F)cc2)nc2ccc(I)cc12)N1CCC[C@H]1CN1CCCC1 [Compound 356]
7 | 1 to 10 µM | CNC[C@@H]1CCCN1C(=O)c1cc(NCc2ccc(C(F)(F)F)cc2)nc2ccc(-c3ccc4c(c3)OCO4)cc12 [Compound 357]
8 | < 1 µM | O=C(c1cc(NCc2ccc(C(F)(F)F)cc2)nc2ccc(-c3ccc4c(c3)OCO4)cc12)N1CCC[C@H]1CNC1CCCC1 [Compound 358]
9 | < 1 µM | O=C(c1cc(NCc2ccc(C(F)(F)F)cc2)nc2ccc(-c3ccc4c(c3)OCO4)cc12)N1CCC[C@H]1CNC1CCC1 [Compound 359]
10 | 1 to 10 µM | O=C(c1cc(NCc2ccc(C(F)(F)F)cc2)nc2ccc(-c3ccc4c(c3)OCO4)cc12)N1CCC[C@H]1CNC1CCCCC1 [Compound 360]
11 | 1 to 10 µM | O=C(c1cc(NCc2ccc(C(F)(F)F)cc2)nc2ccc(-c3ccc4c(c3)OCO4)cc12)N1CCC[C@H]1CNC1CC1 [Compound 361]
12 | > 10 µM | O=C(c1cc(NCc2ccc(C(F)(F)F)cc2)nc2ccc(-c3ccc4c(c3)OCO4)cc12)N1CCC[C@H]1CO [Compound 362]
13 | 1 to 10 µM | CN(Cc1ccccc1)c1cc(C(=O)N2CCC[C@H]2CN2CCCC2)cc(N(C)c2ccccc2)n1 [Compound 363]
14 | 1 to 10 µM | CN(CCc1ccccc1)c1cc(C(=O)N2CCC[C@H]2CN2CCCC2)cc(N(C)Cc2ccccc2)n1 [Compound 364]
15 | 1 to 10 µM | CN(CCc1ccccc1)c1cc(C(=O)N2CCC[C@H]2CN2CCCC2)cc(/C=C/c2ccccc2)n1 [Compound 365]
16 | 1 to 10 µM | CN(CCc1ccccc1)c1cc(C(=O)N2CCC[C@H]2CN2CCCC2)cc(/C=C/c2ccc(C(F)(F)F)cc2)n1 [Compound 366]
17 | > 10 µM | CN(CCc1ccccc1)c1cc(C(=O)N2CCC[C@H]2CN2CCCC2)cc(-c2ccccc2)n1 [Compound 367]
18 | > 10 µM | CN(CCc1ccccc1)c1cc(C(=O)N2CCC[C@H]2CN2CCCC2)cc(-c2ccc3c(c2)OCO3)n1 [Compound 368]
19 | > 10 µM | CN(CCc1ccccc1)c1cc(C(=O)N2CCC[C@H]2CN2CCCC2)cc(Cc2ccccc2)n1 [Compound 369]

Row | IC50 | SMILES
20 | > 10 µM | CN(CCc1ccccc1)c1cc(C(=O)N2CCC[C@H]2CN2CCCC2)cc(N2CCOCC2)n1 [Compound 370]
21 | > 10 µM | CN(CCc1ccccc1)c1cc(C(=O)N2CCC[C@H]2CN2CCCC2)cc(N(C)c2ccccc2)n1 [Compound 371]
22 | 1 to 10 µM | CN(CCc1ccccc1)c1cc(C(=O)N2CCC[C@H]2CN2CCCC2)cc(N(C)CCc2ccccc2)n1 [Compound 372]
23 | 1 to 10 µM | FC(F)(F)c1ccc(CNc2cc(C(=S)N3CCC[C@H]3CN3CCCC3)c3cc(-c4ccc5c(c4)OCO5)ccc3n2)cc1 [Compound 373]
24 | 1 to 10 µM | O=C(c1cc(NCc2ccc(Cl)cc2)nc2ccc(-c3ccc4c(c3)OCO4)cc12)N1CC[C@H]1CN1CCCC1 [Compound 374]
25 | 1 to 10 µM | O=C(c1cc(NCc2ccc(C(F)(F)F)cc2)nc2ccc(-c3ccc4c(c3)OCO4)cc12)N1CCCC[C@H]1CN1CCCC1 [Compound 375]
26 | 1 to 10 µM | O=C(c1cc(NCc2ccc(Cl)cc2)nc2ccc(-c3ccc4c(c3)OCO4)cc12)N1CCCC[C@H]1CN1CCCC1 [Compound 376]
27 | > 10 µM | N=C(NC1CC1)[C@@H]1CCCN1C(=O)c1cc(NCc2ccc(C(F)(F)F)cc2)nc2ccc(-c3ccc4c(c3)OCO4)cc12 [Compound 377]
28 | > 10 µM | N=C(NC1CCC1)[C@@H]1CCCN1C(=O)c1cc(NCc2ccc(C(F)(F)F)cc2)nc2ccc(-c3ccc4c(c3)OCO4)cc12 [Compound 378]
29 | > 10 µM | N=C(NC1CCCC1)[C@@H]1CCCN1C(=O)c1cc(NCc2ccc(C(F)(F)F)cc2)nc2ccc(-c3ccc4c(c3)OCO4)cc12 [Compound 379]
30 | > 10 µM | N=C(NC1CCCCC1)[C@@H]1CCCN1C(=O)c1cc(NCc2ccc(C(F)(F)F)cc2)nc2ccc(-c3ccc4c(c3)OCO4)cc12 [Compound 380]
31 | > 10 µM | N=C([C@@H]1CCCN1C(=O)c1cc(NCc2ccc(C(F)(F)F)cc2)nc2ccc(-c3ccc4c(c3)OCO4)cc12)N1CCCC1 [Compound 381]
32 | > 10 µM | N#C[C@@H]1CCCN1C(=O)c1cc(NCc2ccc(C(F)(F)F)cc2)nc2ccc(-c3ccc4c(c3)OCO4)cc12 [Compound 382]
33 | > 10 µM | O=C(c1cc(NCc2ccc(C(F)(F)F)cc2)nc2c(-c3ccc4c(c3)OCO4)cc(Cl)cc12)N1CCC[C@H]1CN1CCCC1 [Compound 383]
34 | < 1 µM | O=C(c1cc(NCc2ccc(C(F)(F)F)cc2)nc2c(Cl)cc(-c3ccc4c(c3)OCO4)cc12)N1CCC[C@H]1CN1CCCC1 [Compound 384]
35 | 1 to 10 µM | O=C(Nc1cc(C(=O)N2CCC[C@H]2CN2CCCC2)c2cc(-c3ccc4c(c3)OCO4)ccc2n1)c1ccccc1 [Compound 385]
36 | 1 to 10 µM | O=C(Nc1cc(C(=O)N2CCC[C@H]2CN2CCCC2)c2cc(-c3ccc4c(c3)OCO4)ccc2n1)c1ccc(Cl)cc1 [Compound 386]
37 | 1 to 10 µM | N#Cc1ccc(-c2ccc3nc(/C=C/c4ccc(Cl)cc4)cc(C(=O)N4CCC[C@H]4CN4CCCC4)c3c2)cc1 [Compound 387]
38 | 1 to 10 µM | N#Cc1ccc(-c2ccc3nc(CCc4ccc(F)cc4)cc(C(=O)N4CCC[C@H]4CN4CCCC4)c3c2)cc1 [Compound 388]

Row | IC50 | SMILES
39 | < 1 µM | N#Cc1ccc(-c2ccc3nc(CCc4ccc(C(F)(F)F)cc4)cc(C(=O)N4CCC[C@H]4CN4CCCC4)c3c2)cc1 [Compound 389]
40 | > 10 µM | N#Cc1ccc(-c2ccc3nc(CCc4ccc(Cl)cc4)cc(C(=O)N4CCC[C@H]4CN4CCCC4)c3c2)cc1 [Compound 390]
41 | > 10 µM | N#Cc1ccc(-c2ccc3nc(CCc4ccccc4)cc(C(=O)N4CCC[C@H]4CN4CCCC4)c3c2)cc1 [Compound 391]
42 | < 1 µM | Cc1ccc(CCc2cc(C(=O)N3CCC[C@H]3CN3CCCC3)c3cc(-c4ccc5c(c4)OCO5)ccc3n2)cc1 [Compound 392]
43 | < 1 µM | O=C(c1cc(CCc2ccc(-c3ccccc3)cc2)nc2ccc(-c3ccc4c(c3)OCO4)cc12)N1CCC[C@H]1CN1CCCC1 [Compound 393]
44 | > 10 µM | Nc1ccc(CCc2cc(C(=O)N3CCC[C@H]3CN3CCCC3)c3cc(-c4ccc5c(c4)OCO5)ccc3n2)cc1 [Compound 394]
45 | < 1 µM | O=C(c1cc(CCc2ccccc2F)nc2ccc(-c3ccc4c(c3)OCO4)cc12)N1CCC[C@H]1CN1CCCC1 [Compound 395]
46 | < 1 µM | O=C(c1cc(CCc2cccc(F)c2)nc2ccc(-c3ccc4c(c3)OCO4)cc12)N1CCC[C@H]1CN1CCCC1 [Compound 396]
47 | < 1 µM | O=C(c1cc(CCc2ccc(F)cc2F)nc2ccc(-c3ccc4c(c3)OCO4)cc12)N1CCC[C@H]1CN1CCCC1 [Compound 397]
48 | < 1 µM | CCCCCc1ccc(CCc2cc(C(=O)N3CCC[C@H]3CN3CCCC3)c3cc(-c4ccc5c(c4)OCO5)ccc3n2)cc1 [Compound 398]
49 | > 10 µM | O=C(c1ccnc2ccc(-c3ccc4c(c3)OCO4)cc12)N1CCC[C@H]1CN1CCCC1 [Compound 399]
50 | < 1 µM | O=C(c1cc(Cc2ccc(Cl)cc2)nc2ccc(-c3ccc4c(c3)OCO4)cc12)N1CCC[C@H]1CN1CCCC1 [Compound 400]
51 | < 1 µM | O=C(c1cc(Cc2ccc(Cl)cc2Cl)nc2ccc(-c3ccc4c(c3)OCO4)cc12)N1CCC[C@H]1CN1CCCC1 [Compound 401]
52 | < 1 µM | COc1ccc(C#Cc2cc(C(=O)N3CCC[C@H]3CN3CCCC3)c3cc(-c4ccc5c(c4)OCO5)ccc3n2)cc1 [Compound 403]
53 | < 1 µM | O=C(c1cc(C#Cc2cccc(C(F)(F)F)c2)nc2ccc(-c3ccc4c(c3)OCO4)cc12)N1CCC[C@H]1CN1CCCC1 [Compound 404]
54 | < 1 µM | CCN(Cc1ccc(C)cc1)c1cc(C(=O)N2CCC[C@H]2CN2CCCC2)c2cc(-c3ccc4c(c3)OCO4)ccc2n1 [Compound 405]
55 | < 1 µM | O=C(c1cc(CCCc2ccc(Cl)cc2)nc2ccc(-c3ccc4c(c3)OCO4)cc12)N1CCC[C@H]1CN1CCCC1 [Compound 406]
56 | < 1 µM | O=C(c1cc(CCCCc2ccc(Cl)cc2)nc2ccc(-c3ccc4c(c3)OCO4)cc12)N1CCC[C@H]1CN1CCCC1 [Compound 407]

Row | SMILES | IC50
57 | C[Si](C)(C)C#Cc1cc(C(=O)N2CCC[C@H]2CN2CCCC2)c2cc(-c3ccc4c(c3)OCO4)ccc2n1 [Compound 402] | < 1 µM
